Columns and labels:
[1] = system: oligo-2: d(CGATGTACATCG)2; experiment: UV thermal denaturation; type: binding
[2] = system: oligo-1: d(CGCGAATTCGCG)2; experiment: Fluorescence titration; type: binding; settings: 20 °C, pH 7.2
[3] = system: oligo-2: d(CGATGTACATCG)2; experiment: Fluorescence titration; type: binding; settings: 20 °C, pH 7.2
HEK = experiment: MTT cytotoxicity assay; type: cell-based; settings: Homo sapiens, HEK293, 48 h
NIH3T3 = experiment: MTT cytotoxicity assay; type: cell-based; settings: Mus musculus, NIH3T3, 48 h
CCRF-CEM = experiment: NCI-60 SRB growth assay; type: cell-based, human
SR = experiment: NCI-60 SRB growth assay; type: cell-based, human
HOP-62 = experiment: NCI-60 SRB growth assay; type: cell-based, human; settings: HOP-62
HOP-92 = experiment: NCI-60 SRB growth assay; type: cell-based, human
NCI-H226 = experiment: NCI-60 SRB growth assay; type: cell-based, human
NCI-H23 = experiment: NCI-60 SRB growth assay; type: cell-based, human
NCI-H460 = experiment: NCI-60 SRB growth assay; type: cell-based, human
NCI-H522 = experiment: NCI-60 SRB growth assay; type: cell-based, human
HCC-2998 = experiment: NCI-60 SRB growth assay; type: cell-based, human
HT29 = experiment: NCI-60 SRB growth assay; type: cell-based, human
KM12 = experiment: NCI-60 SRB growth assay; type: cell-based, human
SW-620 = experiment: NCI-60 SRB growth assay; type: cell-based, human
SF-268 = experiment: NCI-60 SRB growth assay; type: cell-based, human
SF-295 = experiment: NCI-60 SRB growth assay; type: cell-based, human
U251 = experiment: NCI-60 SRB growth assay; type: cell-based, human
SK-MEL-28 = experiment: NCI-60 SRB growth assay; type: cell-based, human
UACC-257 = experiment: NCI-60 SRB growth assay; type: cell-based, human
IGROV1 = experiment: NCI-60 SRB growth assay; type: cell-based, human
OVCAR-5 = experiment: NCI-60 SRB growth assay; type: cell-based, human
786-0 = experiment: NCI-60 SRB growth assay; type: cell-based, human
A498 = experiment: NCI-60 SRB growth assay; type: cell-based, human
ACHN = experiment: NCI-60 SRB growth assay; type: cell-based, human
CAKI-1 = experiment: NCI-60 SRB growth assay; type: cell-based, human
SN12C = experiment: NCI-60 SRB growth assay; type: cell-based, human
PC-3 = experiment: NCI-60 SRB growth assay; type: cell-based, human
BT-549 = experiment: NCI-60 SRB growth assay; type: cell-based, human; settings: BT-549
T-47D = experiment: NCI-60 SRB growth assay; type: cell-based, human
MDA-MB-468 = experiment: NCI-60 SRB growth assay; type: cell-based, human; settings: MDA-MB-468
[4] = system: panel of 60 human cancer cell lines; experiment: cells; settings: read-out: GI50 concentration range

CCCCN1CCN(c2ccc3[nH]c(-c4ccc5[nH]c(-c6ccc(OCC)c(OCC)c6)nc5c4)nc3c2)CC1 [12a, 5-(4-Butylpiperazin-1-yl)-2-(2-(3,4-diethoxyphenyl)-1H-benzo[d]imidazol-5-yl)-1H-benzo[d]imidazole]
ΔTm ([1]; r = 0.5): 1 °C
Tm ([1]; r = 0.5, oligo 2.5 μM): 57.9 °C
Tm ([1]; r = 1): 58.9 °C
ΔTm ([1]; r = 1): 2 °C
Tm ([1]; r = 1.5): 58.9 °C
ΔTm ([1]; r = 1.5): 2 °C
Tm ([1]; r = 2.0): 59.9 °C
ΔTm ([1]; r = 2.0): 3 °C
Ka binding affinity with oligo-1 [2]: 1 × 10^7 M^–1
Ka binding affinity with oligo-2 [3]: 4 × 10^6 M^1
IC50 (HEK): 2700 nM
IC50 (NIH3T3): 8.2 µM
TGI (CCRF-CEM): 3.06 µM
GI50 (CCRF-CEM; Homo sapiens): 530 nM
CC50 (CCRF-CEM; Homo sapiens, read-out: LC50): > 100 µM
TGI (SR): 1.19 µM
GI50 (SR; Homo sapiens): 310 nM
CC50 (SR; Homo sapiens, read-out: LC50): > 100 µM
TGI (HOP-62): 3.40 µM
GI50 (HOP-62; Homo sapiens): 1810 nM
TGI (HOP-92; HOP-92): 3.17 µM
GI50 (HOP-92; Homo sapiens, HOP-92): 1230 nM
CC50 (HOP-92; Homo sapiens, HOP-92, read-out: LC50): 8.15 µM
GI50 (NCI-H226; Homo sapiens, NCI-H226): 1290 nM
CC50 (NCI-H226; Homo sapiens, NCI-H226, read-out: LC50): > 100 µM
TGI (NCI-H226; NCI–H226): 3.95 µM
GI50 (NCI-H23; Homo sapiens, NCI-H23): 780 nM
TGI (NCI-H23; NCI–H23): 2.35 µM
GI50 (NCI-H460; Homo sapiens, NCI-H460): 530 nM
CC50 (NCI-H460; Homo sapiens, NCI-H460, read-out: LC50): 5.31 µM
TGI (NCI-H460; NCI–H460): 1.86 µM
GI50 (NCI-H522; Homo sapiens, NCI-H522): 1200 nM
CC50 (NCI-H522; Homo sapiens, NCI-H522, read-out: LC50): > 100 µM
TGI (NCI-H522; NCI–H522): 3.97 µM
TGI (HCC-2998; HCC-2998): 3.22 µM
GI50 (HCC-2998; Homo sapiens, HCC 2998): 1710 nM
TGI (HT29; HT29): 2.97 µM
GI50 (HT29; Homo sapiens, HT-29): 800 nM
CC50 (HT29; Homo sapiens, HT-29, read-out: LC50): 100 µM
GI50 (KM12; Homo sapiens, KM12): 1420 nM
CC50 (KM12; Homo sapiens, KM12, read-out: LC50): 6.28 µM
TGI (KM12; KM12): 2.99 µM
GI50 (SW-620; Homo sapiens, SW-620): 470 nM
CC50 (SW-620; Homo sapiens, SW-620, read-out: LC50): 5.15 µM
TGI (SW-620; SW620): 1.79 µM
GI50 (SF-268; Homo sapiens, SF-268): 2660 nM
CC50 (SF-268; Homo sapiens, SF-268, read-out: LC50): > 100 µM
TGI (SF-268; SF-268): 22.0 µM
GI50 (SF-295; Homo sapiens, SF-295): 700 nM
TGI (SF-295; SF-265): 2.26 µM
GI50 (U251; Homo sapiens, U-251): 1280 nM
CC50 (U251; Homo sapiens, U-251, read-out: LC50): 5.65 µM
TGI (U251; U251): 2.69 µM
GI50 (SK-MEL-28; Homo sapiens, SK-MEL-28): 1010 nM
CC50 (SK-MEL-28; Homo sapiens, SK-MEL-28, read-out: LC50): 4.86 µM
TGI (SK-MEL-28; SK-MEL-28): 2.22 µM
GI50 (UACC-257; Homo sapiens, UACC-257): 1210 nM
CC50 (UACC-257; Homo sapiens, UACC-257, read-out: LC50): > 100 µM
TGI (UACC-257; UACC-257): 10.5 µM
GI50 (IGROV1; Homo sapiens, IGROV-1): 1150 nM
TGI (IGROV1; IGROV1): 2.60 µM
GI50 (OVCAR-5; Homo sapiens, OVCAR-5): 1900 nM
CC50 (OVCAR-5; Homo sapiens, OVCAR-5, read-out: LC50): 6.08 µM
TGI (OVCAR-5; OVCAR-5): 3.40 µM
TGI (786-0; 786–0): 2.84 µM
GI50 (786-0; Homo sapiens, 786-0): 1410 nM
CC50 (786-0; Homo sapiens, 786-0, read-out: LC50): 5.72 µM
TGI (A498; A498): 2.47 µM
GI50 (A498; Homo sapiens, A498): 1180 nM
CC50 (A498; Homo sapiens, A498, read-out: LC50): 5.16 µM
TGI (ACHN): 2.12 µM
GI50 (ACHN; Homo sapiens): 920 nM
CC50 (ACHN; Homo sapiens, read-out: LC50): 4.65 µM
TGI (CAKI-1; CAKI-1): 2.52 µM
GI50 (CAKI-1; Homo sapiens, CAKI-1): 1040 nM
CC50 (CAKI-1; Homo sapiens, CAKI-1, read-out: LC50): 6.12 µM
GI50 (SN12C; Homo sapiens, SN12C): 1030 nM
TGI (SN12C; SN12c): 2.61 µM
GI50 (PC-3; Homo sapiens, PC-3): 1080 nM
CC50 (PC-3; Homo sapiens, PC-3, read-out: LC50): 5.49 µM
TGI (PC-3; PC-3): 2.44 µM
TGI (BT-549): 3.07 µM
GI50 (BT-549; Homo sapiens): 1550 nM
GI50 (T-47D; Homo sapiens, T47D): 1360 nM
CC50 (T-47D; Homo sapiens, T47D, read-out: LC50): > 100 µM
TGI (T-47D; T-47D): 7.88 µM
GI50 (MDA-MB-468; Homo sapiens): 1270 nM
TGI (MDA-MB-468): 3.09 µM
GI50 [4]: 160 to 3600 nM

Source: PMC8793051 (ACS Omega, 2022)
